The target of the assay is T1, MELK (Homo sapiens, UniProt Q14680).
T1 construct: purchased Thermo Fisher Scientific (Life Technologies) SelectScreen
As to the kind of experiment: SelectScreen Z'LYTE. The class given is biochemical. The method, boiled down:
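NU5455 was profiled across the SelectScreen Broad panel of kinase activity and binding assays. Z'LYTE reactions such as CSF1R ran at apparent Km ATP, while the Adapta CAMK1 assay used ATP listed as 10. Values are given as percent.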

The inhibition is the change of the read-out against control, counted positive when it falls.

T1 sequence (Q14680 whole entry): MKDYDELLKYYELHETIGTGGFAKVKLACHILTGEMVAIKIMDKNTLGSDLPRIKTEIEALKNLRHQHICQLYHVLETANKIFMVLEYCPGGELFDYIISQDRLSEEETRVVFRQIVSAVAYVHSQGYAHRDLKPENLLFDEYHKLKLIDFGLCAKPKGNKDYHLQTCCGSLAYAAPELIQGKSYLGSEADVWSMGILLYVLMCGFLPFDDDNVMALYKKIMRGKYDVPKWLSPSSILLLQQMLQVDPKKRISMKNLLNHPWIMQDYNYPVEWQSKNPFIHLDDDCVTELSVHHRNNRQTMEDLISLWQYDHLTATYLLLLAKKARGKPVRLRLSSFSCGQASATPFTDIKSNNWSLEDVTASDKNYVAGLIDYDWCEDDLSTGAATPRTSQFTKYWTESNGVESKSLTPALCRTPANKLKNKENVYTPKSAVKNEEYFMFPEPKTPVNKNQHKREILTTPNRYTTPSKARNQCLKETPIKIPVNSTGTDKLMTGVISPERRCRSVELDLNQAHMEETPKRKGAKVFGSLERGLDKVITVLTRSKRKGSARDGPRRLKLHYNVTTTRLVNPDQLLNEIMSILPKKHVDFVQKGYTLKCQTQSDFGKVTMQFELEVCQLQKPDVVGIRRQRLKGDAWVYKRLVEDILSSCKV

For `CN(C(=O)CN1CCOCC1)c1ccc2sc3c(-c4cccc5c(=O)cc(N6CC7CCC(C6)O7)oc45)cccc3c2c1` [NU5455], the inhibition at 1 µM is -11.8%.

For the origin of these results see article PMC6934184, “Selective DNA-PKcs inhibition extends the therapeutic index of localized radiotherapy and chemotherapy” (The Journal of Clinical Investigation, 2019).
